The subject of one assay is cholangiocarcinoma. To be noted: xenograft model of cholangiocarcinoma; cited from earlier work.
Assay [1] has as its system 5HT. The conditions noted are these: 200 mg/kg i.p. qid for 3 days; cited from earlier work.
The subject of assay [2] is 5HT. To be noted: mice; cited from earlier work.
Another assay relates to 5HT / 5HIAA. The conditions noted are these: phase IIA study, qid; cited from earlier work.
Assay [3] deals with 5HT. The conditions noted are these: in vivo; cited from earlier work.
The next assay addresses human TPH1 (Homo sapiens (Human), UniProt P17752). The assay is described as follows: Biochemical in vitro assay using fluorescence readout (TPH1 inhibition). To be noted: human TPH1, fluorescence readout.

human TPH1, sequence (P17752 whole entry): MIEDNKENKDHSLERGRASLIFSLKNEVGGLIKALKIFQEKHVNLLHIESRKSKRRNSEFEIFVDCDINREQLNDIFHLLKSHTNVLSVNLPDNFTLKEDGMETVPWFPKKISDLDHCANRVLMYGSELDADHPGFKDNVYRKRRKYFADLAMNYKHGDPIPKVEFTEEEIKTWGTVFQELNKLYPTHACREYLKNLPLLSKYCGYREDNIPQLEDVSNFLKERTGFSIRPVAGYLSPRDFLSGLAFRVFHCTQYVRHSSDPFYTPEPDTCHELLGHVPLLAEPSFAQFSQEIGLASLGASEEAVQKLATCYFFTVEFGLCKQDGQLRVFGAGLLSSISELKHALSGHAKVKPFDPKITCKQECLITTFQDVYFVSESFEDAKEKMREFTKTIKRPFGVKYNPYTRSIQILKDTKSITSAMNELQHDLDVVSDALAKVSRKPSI

For `N[C@@H](Cc1ccc(Cl)cc1)C(=O)O` (racemic) [PCA, p-chlorophenylalanine], the tumor volume entry in the assay on cholangiocarcinoma is listed as “dramatic reduction in tumor volume”. In the assay on 5HT [1], the “5HT in the brain” value was around 20 % original and the “5HT in the gut” value is recorded as around 50 % original. On to `Nc1nc(OC(c2ccc(-c3cccc(F)c3)cc2)C(F)(F)F)cc(-c2ccc(C[C@H](N)C(=O)O)cc2)n1` (stereo partly drawn) [LP533401], for which, in the assay on 5HT [2], the “brain 5HT concentrations” value is recorded as “without effecting brain concentrations” and the “gut 5HT” value is on record as “lower gut 5HT”.

As to `COc1cccc(-c2ccc([C@@H](Oc3cc(-c4ccc(C[C@H](N)C(=O)O)cc4)nc(N)n3)C(F)(F)F)cc2)c1` [LX1031, (S)-2-Amino-3-(4-{2-amino-6-[(R)-2,2,2-trifluoro-1-(3′-methoxy-biphenyl-4-yl)-ethoxy]-pyrimidin-4-yl}-phenyl)-propionic acid], in the assay on 5HT / 5HIAA, the “blood 5HT” value is “did not affect blood 5HT” and the “urinary 5HIAA reduction” value is given as “up to 30%”. Further, in the assay on 5HT [3], the “5HT in the colon” value is listed as “only a minor reduction”, the “5HT in the jejunum” value is “lowers 5HT in the jejunum” and the “brain 5HT” value is given as “no effect on brain 5HT”. In the case of `Cc1nn2c3c(nc2s1)CCN(C(=O)COc1ccc(S(=O)(=O)N(C)C)nc1Cl)C3c1ccc(Cl)cc1F` (stereo not drawn) [Example 1.4.61, 6-chloro-5-(2-(5-(4-chloro-2-fluorophenyl)-2-methyl-7,8-dihydro-[1,3,4]thiadiazolo[2′,3′:2,3]imidazo[4,5-c]pyridin-6(5H)-yl)-2-oxoethoxy)-N,N-dimethylpyridine-2-sulfonamide], the 50% inhibitory concentration (IC50) against human TPH1 came to 37 nM.

`Cc1nn2c3c(nc2s1)CCN(C(=O)COc1ccc(NS(C)(=O)=O)nc1Cl)C3c1cnc(C(=O)N(C)C)s1` (stereo not drawn) [Example 1.34.3, 5-(6-(2-((2-chloro-6-(methylsulfonamido)pyridin-3-yl)oxy)acetyl)-2-methyl-5,6,7,8-tetrahydro-[1,3,4]thiadiazolo [2′,3′:2,3]imidazo[4,5-c]pyridin-5-yl)-N,N-dimethylthiazole-2-carboxamide] had an IC50 at human TPH1 of 104 nM. Same read-out and setting: the value for `Cc1nn2c3c(nc2s1)CCN(C(=O)COc1cnc(N(C)C)nc1Cl)C3c1sccc1F` (stereo not drawn) [Example 1.23.11, 2-((4-chloro-2-(dimethylamino)pyrimidin-5-yl)oxy)-1-(5-(3-fluorothiophen-2-yl)-2-methyl-7,8-dihydro-[1,3,4]thiadiazolo[2′,3′:2,3]imidazo[4,5-c]pyridin-6(5H)-yl)ethanone] was 6 nM; that for `COc1ccc(C2c3c(nc4sccn34)CCN2C(=O)COc2ccc(CN3CCOCC3)cc2Cl)cc1OC` (stereo not drawn) [Example 6.1.2, 2-(2-chloro-4-(morpholinomethyl)phenoxy)-1-(5-(3,4-dimethoxyphenyl)-7,8-dihydrothiazolo[2′,3′:2,3]-imidazo[4,5-c]pyridin-6(5H)-yl)ethanone] was 5 nM; that for `Cc1nn2c3c(nc2s1)CCN(C(=O)COc1ccc(N2CCOCC2)nc1Cl)C3c1ncc(Cl)cc1F` (stereo not drawn) [Example 1.33.1, 1-(5-(5-chloro-3-fluoropyridin-2-yl)-2-methyl-7,8-dihydro[1,3,4]thiadiazolo[2′,3′:2,3]imidazo[4,5-c]pyridin-6(5H)-yl)-2-((2-chloro-6-morpholinopyridin-3-yl)oxy)ethanone] was 2 nM.

A word on the IC50: it is the point on the concentration scale where inhibition reaches its midpoint. A higher IC50 goes with lower potency.
